The source of these data is patent publication US20230122249A1, “1H-PYRAZOLO[4,3-d]PYRIMIDINE COMPOUNDS AS TOLL-LIKE RECEPTOR 7 (TLR7) AGONISTS” (BRISTOL-MYERS SQUIBB COMPANY, priority 2020, published 2023).

Assay [1] concerns CD69 in human whole blood. The experiment in a line: Induction of CD69 in human whole blood (hWB). In kind it is cell-based. To be noted: heparinized human whole blood, 17 h, CD69 surface staining; 100% set to 1 uM resiquimod; average where assay repeated. Put shortly: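 hWB stimulated with compound at 1 uM final (1 mM stock), 37° C o/n (17 hrs). Surface CD69-PE staining with CD14/CD19 gating, fix/lysis, then flow cytometry read. IC50 curves with 100% set to 1 uM resiquimod.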

The target of assay [2] is T1, human TLR7 (Homo sapiens, UniProt Q9NYK1).
T1 construct: host or cells: HEK-Blue TLR7 cells (engineered human embryonic kidney cells)
T1 sequence (Q9NYK1 27-1049): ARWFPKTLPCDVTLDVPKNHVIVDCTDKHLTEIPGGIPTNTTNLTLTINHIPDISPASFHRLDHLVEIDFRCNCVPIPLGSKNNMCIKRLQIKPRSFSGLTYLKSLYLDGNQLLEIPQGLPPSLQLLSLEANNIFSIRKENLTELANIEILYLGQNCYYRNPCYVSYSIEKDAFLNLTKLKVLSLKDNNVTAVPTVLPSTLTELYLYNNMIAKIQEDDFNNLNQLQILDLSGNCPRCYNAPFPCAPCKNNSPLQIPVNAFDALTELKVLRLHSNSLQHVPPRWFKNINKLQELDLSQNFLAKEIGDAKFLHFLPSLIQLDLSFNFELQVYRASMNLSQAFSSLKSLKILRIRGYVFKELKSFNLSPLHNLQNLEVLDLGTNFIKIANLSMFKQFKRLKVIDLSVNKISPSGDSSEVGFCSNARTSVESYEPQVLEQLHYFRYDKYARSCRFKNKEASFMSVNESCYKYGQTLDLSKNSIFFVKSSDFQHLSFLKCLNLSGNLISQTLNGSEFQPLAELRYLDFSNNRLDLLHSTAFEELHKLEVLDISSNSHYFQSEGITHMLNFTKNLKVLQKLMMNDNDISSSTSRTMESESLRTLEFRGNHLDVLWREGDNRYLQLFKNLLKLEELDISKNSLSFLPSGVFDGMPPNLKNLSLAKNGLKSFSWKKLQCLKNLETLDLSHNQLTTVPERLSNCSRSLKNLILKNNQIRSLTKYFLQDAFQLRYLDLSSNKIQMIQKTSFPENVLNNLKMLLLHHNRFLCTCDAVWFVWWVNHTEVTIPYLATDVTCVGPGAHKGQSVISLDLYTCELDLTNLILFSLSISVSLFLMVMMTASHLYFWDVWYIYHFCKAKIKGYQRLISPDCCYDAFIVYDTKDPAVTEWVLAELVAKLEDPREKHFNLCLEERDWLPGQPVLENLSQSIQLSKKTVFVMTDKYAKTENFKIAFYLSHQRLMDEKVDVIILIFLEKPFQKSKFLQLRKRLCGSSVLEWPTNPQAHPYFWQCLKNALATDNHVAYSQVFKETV
In words: Human TLR7 agonist activity (hTLR7 reporter) assay in HEK-Blue TLR7 cells, SEAP readout. In kind it is cell-based. To be noted: 18 h treatment, average where assay repeated. A digest of the protocol: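 HEK-Blue TLR7 cells (15,000/well) treated with compound for 18 h at 37 °C, 5% CO2. Secreted SEAP measured with Quanti-Blue, 30 min, OD 620 nm. EC50 taken as concentration giving half-maximal response between baseline and maximum.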

As usually defined, the EC50 is the concentration at which the effect is half-maximal. With `CCC[C@@H](CCO)Nc1nc(N)nc2cnn(Cc3ccc(C(=O)N4CC5(CN(C)C5)C4)cc3OC)c12` [Compound 206], the EC50 was 36.3 nM in assay [1] and 93.3 nM in assay [2].

As for `COc1cc(C(=O)NC2CCN(C)CC2)ccc1Cn1nc(C)c2nc(N)nc(NCC3CC4(CC4)C3)c21` [Compound 207], the half-maximal effective concentration (EC50) was 93.3 nM in assay [1] and 325 nM in assay [2].

For `COc1cc(C(=O)N2C[C@H]3C[C@@H]2CN3C)ccc1Cn1nc(C)c2nc(N)nc(NCC3CC4(CC4)C3)c21` [Compound 208], the 50% effective concentration (EC50) in assay [1] is 45.8 nM; in assay [2] it was 119 nM.

On to `CCC[C@@H](CCO)Nc1nc(N)nc2cnn(Cc3ccc(C(=O)N4CC5(CNC5)C4)cc3OC)c12` [Compound 209], for which the EC50 turned out to be 195 nM in assay [1] and 242 nM in assay [2].

For the compound `COc1cc(CN2CC3(CN(C)C3)C2)ccc1Cn1ncc2nc(N)nc(NCc3cc(C)on3)c21` [Compound 211], the concentration for a half-maximal effect (EC50) worked out at 33.7 nM in assay [1] and 640 nM in assay [2].

Take `COc1cc(CN2CC3(C2)CN(C(C)C)C3)ccc1Cn1ncc2nc(N)nc(NCc3cc(C)on3)c21` [Compound 213]: the EC50 came out at 2.3 nM in assay [1] and 53.4 nM in assay [2].

In the case of `COc1cc(C(=O)N2CC3(CN(C)C3)C2)ccc1Cn1ncc2nc(N)nc(NCc3cc(C)on3)c21` [Compound 214], the figures for the EC50 in assay [1] and in assay [2] were 10.9 nM and 67.6 nM, respectively.

Take `CCC[C@@H](CCO)Nc1nc(N)nc2cnn(Cc3ccc(CN4CC5(CN(C)C5)C4)cc3OC)c12` [Compound 215]: the concentration giving a half-maximal response (EC50) was determined as 104 nM in assay [1] and 372 nM in assay [2].

`CCC[C@@H](CCO)Nc1nc(N)nc2cnn(Cc3ccc(CN4CC5(C4)CN(C(C)C)C5)cc3OC)c12` [Compound 216]: the half-maximal effective concentration (EC50) in assay [1] turned out to be 1.3 nM; in assay [2] it was 7.3 nM.

As to `COc1cc(C(=O)N2C[C@H]3CN(C)C[C@H]3C2)ccc1Cn1nc(C)c2nc(N)nc(NCC3CC4(CC4)C3)c21` [Compound 217], the results for the EC50 in assay [1] and in assay [2] were 10.8 nM and 115 nM, respectively.

Turning to `CN1C[C@@H]2CN(C(=O)c3ccc(Cn4ncc5nc(N)nc(NCC6CC7(CC7)C6)c54)c(OC(F)F)c3)C[C@@H]2C1` [Compound 218], the 50% effective concentration (EC50) was determined as 35 nM in assay [1] and 125 nM in assay [2].

With `CN1C[C@H]2C[C@@H]1CN2C(=O)c1ccc(Cn2ncc3nc(N)nc(NCC4CC5(CC5)C4)c32)c(OC(F)F)c1` [Compound 219], the values for the EC50 in assay [1] and in assay [2] were 37.7 nM and 188 nM, respectively.

As for `CN1CCC(NC(=O)c2ccc(Cn3ncc4nc(N)nc(NCC5CC6(CC6)C5)c43)c(OC(F)F)c2)CC1` [Compound 220], the concentration giving a half-maximal response (EC50) in assay [1] was found to be 117 nM; in assay [2], 1240 nM.

For the compound `CN1CCN(C(=O)c2ccc(Cn3ncc4nc(N)nc(NCC5CC6(CC6)C5)c43)c(OC(F)F)c2)CC1` [Compound 221], the concentration for a half-maximal effect (EC50) in assay [1] worked out at 50.6 nM; in assay [2], 247 nM.

For `COc1cc(C(=O)N(C)CCN(C)C)ccc1Cn1ncc2nc(N)nc(NCC3CC4(CC4)C3)c21` [Compound 222], the EC50 in assay [1] was determined as 2.4 nM; in assay [2], 16 nM.

For the compound `Nc1nc(NCC2CC3(CC3)C2)c2c(cnn2Cc2ccc(C(=O)C3C[C@H]4CNC[C@H]4N3)cc2OC(F)F)n1` (some centres unmarked) [Compound 224], the EC50 was 520 nM in assay [1] and 1400 nM in assay [2].

`COc1cc(C(=O)NC2CCN(CCO)CC2)ccc1Cn1ncc2nc(N)nc(NCC3CC4(CC4)C3)c21` [Compound 225]: the EC50 stood at 218 nM in assay [1] and 1220 nM in assay [2].

For `COc1cc(C(=O)N2CCC(S(C)(=O)=O)CC2)ccc1Cn1ncc2nc(N)nc(NCC3CC4(CC4)C3)c21` [Compound 226], the 50% effective concentration (EC50) in assay [1] was 555 nM; in assay [2], 425 nM.

For `COc1cc(C(=O)N2CCS(=O)(=O)CC2)ccc1Cn1ncc2nc(N)nc(NCC3CC4(CC4)C3)c21` [Compound 227], the EC50 in assay [1] came out at 125 nM; in assay [2], 507 nM.

Turning to `COc1cc(C(=O)N(CCO)CCO)ccc1Cn1ncc2nc(N)nc(NCC3CC4(CC4)C3)c21` [Compound 228], the EC50 in assay [1] was found to be 553 nM; in assay [2], 894 nM.

With `CCC[C@@H](CCO)Nc1nc(N)nc2cnn(Cc3ccc(C(=O)N4CC5(C4)CN(C4CCOCC4)C5)cc3OC)c12` [Compound 229], the concentration giving a half-maximal response (EC50) in assay [1] was found to be 37.6 nM; in assay [2], 37.9 nM.

Regarding `COc1cc(C(=O)NC2CCN(CC(=O)N(C)C)CC2)ccc1Cn1ncc2nc(N)nc(NCC3CC4(CC4)C3)c21` [Compound 230], the 50% effective concentration (EC50) was 197 nM in assay [1] and 276 nM in assay [2].

Regarding `COc1cc(C(=O)NCCCN(C)C)ccc1Cn1ncc2nc(N)nc(NCC3CC4(CC4)C3)c21` [Compound 231], the figures for the concentration giving a half-maximal response (EC50) in assay [1] and in assay [2] were 32.4 nM and 166 nM, respectively.

On to `CCC[C@@H](CCO)Nc1nc(N)nc2cnn(Cc3ccc(C(=O)N4CC5(C4)CN(C(C)C)C5)cc3OC)c12` [Compound 232], for which the values for the EC50 in assay [1] and in assay [2] were 32.9 nM and 37.1 nM, respectively.

For the compound `CCC[C@@H](CCO)Nc1nc(N)nc2cnn(Cc3ccc(C(=O)N4CC5(CN(CCO)C5)C4)cc3OC)c12` [Compound 233], the EC50 in assay [1] amounted to 265 nM; in assay [2] it was 412 nM.

Take `COc1cc(C(=O)NCCN(C)C)ccc1Cn1ncc2nc(N)nc(NCC3CC4(CC4)C3)c21` [Compound 234]: the EC50 was 10.2 nM in assay [1] and 93.2 nM in assay [2].

On to `COc1cc(C(=O)N2CCN(C(C)=O)CC2)ccc1Cn1ncc2nc(N)nc(NCC3CC4(CC4)C3)c21` [Compound 235], for which the results for the concentration for a half-maximal effect (EC50) in assay [1] and in assay [2] were 223 nM and 146 nM, respectively.

Take `COc1cc(C(=O)N2CCN(S(C)(=O)=O)CC2)ccc1Cn1ncc2nc(N)nc(NCC3CC4(CC4)C3)c21` [Compound 236]: the EC50 in assay [1] was 284 nM; in assay [2], 199 nM.

`COc1cc(C(=O)N2CCN(CC(F)(F)F)CC2)ccc1Cn1ncc2nc(N)nc(NCC3CC4(CC4)C3)c21` [Compound 237]: the EC50 in assay [1] stood at 958 nM; in assay [2] it was 589 nM.

On to `COc1cc(C(=O)NC2CCN(CC(C)(C)O)CC2)ccc1Cn1ncc2nc(N)nc(NCC3CC4(CC4)C3)c21` [Compound 238], for which the values for the EC50 in assay [1] and in assay [2] were 35.2 nM and 86 nM, respectively.

For `COc1cc(C(=O)N2CCN(CC(C)(C)O)CC2)ccc1Cn1ncc2nc(N)nc(NCC3CC4(CC4)C3)c21` [Compound 239], the EC50 came out at 110 nM in assay [1] and 39 nM in assay [2].

Consider `COc1cc(C(=O)N2C[C@@H]3CN(S(C)(=O)=O)C[C@@H]3C2)ccc1Cn1ncc2nc(N)nc(NCC3CC4(CC4)C3)c21` [Compound 240], for which the 50% effective concentration (EC50) in assay [1] was 845 nM; in assay [2], 291 nM.

For the compound `COc1cc(CN2CC3(C2)CN(C[C@H](C)O)C3)ccc1Cn1ncc2nc(N)nc(NCC3CC4(CC4)C3)c21` [Compound 241], the concentration giving a half-maximal response (EC50) in assay [1] worked out at 14 nM; in assay [2], 72.9 nM.

For the compound `Nc1nc(NCC2CC3(CC3)C2)c2c(cnn2Cc2ccc(CN3CC4(CNC4)C3)cc2OC(F)F)n1` [Compound 242], the EC50 in assay [1] stood at 588 nM; in assay [2], 829 nM.

As to `Nc1nc(NCC2CC3(CC3)C2)c2c(cnn2Cc2ccc(CN3C[C@H]4CNC[C@H]4C3)cc2OC(F)F)n1` [Compound 243], the EC50 in assay [1] stood at 193 nM; in assay [2] it was 283 nM.

In the case of `CCCCNc1nc(N)nc2c(C)nn(Cc3ccc(CN4CC5(C4)CN(C(C)=O)C5)cc3OC)c12` [Compound 244], the concentration giving a half-maximal response (EC50) in assay [1] amounted to 31.1 nM; in assay [2] it was 138 nM.

Consider `CCC[C@@H](CCO)Nc1nc(N)nc2c(F)nn(Cc3ccc(CN4CC5(CNC5)C4)cc3OC)c12` [Compound 245], for which the EC50 in assay [1] was determined as 1.2 nM; in assay [2] it was 40.6 nM.
